In assay [1] the test system is PDE IV. Kind of assay: Inhibition of PDE isoenzymes: PDE IV (PDE4, cytosol of human neutrophils, cAMP substrate). The format is biochemical.
Description: PDE inhibition is then determined by the presence or absence of substrate degradation products. […] The relative ability of an inhibitory compound to slow or prevent the degradation of tritiated cyclic nucleotides is one test that is indicative of how well the compound in question selects one or more of each isoform to inhibit.
In practice, the in vitro selectivity of a PDE IV inhibitor may vary depending upon the condition under which the test is performed and on the inhibitors being tested. However, for the purposes of this specification, the selectivity of a PDE IV inhibitor can be measured as a ratio of the in vitro IC50 value for inhibition of any other isoform of the phosphodiesterase enzyme (Z) other than PDE IV, divided by the IC50 value for inhibition of PDE IV (PDE Z IC50/PDE IV IC50), where Z identifies any PDE other than PDE IV. As used herein, the term “IC50” refers to the concentration of a compound that is required to produce 50% inhibition of phosphodiesterase activity. […]
After preincubation for 5 min at 37° C., the reaction isstarted by the addition of substrate (cAMP or cGMP) and the assays are incubated for further 15 min at 37° C. […] The columns are elutedwith 2 ml of 30 mM ammonium formate (pH 6.0) and the eluate is counted for radioactivity. Results are corrected for blank values (measured in the presence of denatured protein) that are below 5% of total radioactivity. […]
Assay [2] relates to T1, PDE IV.
T1 construct: other: reported in Hatzelmann et al., JPET 297(1):267-279 (2001)
As to conditions: reported in Hatzelmann et al., JPET 297(1):267-279 (2001); read-out: IC50 for roflumilast activity on PDE IV; cited from earlier work.

A further assay has as its system PDE I. As to conditions: reported in Hatzelmann et al., JPET 297(1):267-279 (2001); read-out: IC50 for roflumilast activity on PDE I; cited from earlier work.

Some results are limits rather than exact numbers.

The IC50 is the concentration that inhibits the measured activity by half.

As to `O=C(Nc1c(Cl)cncc1Cl)c1ccc(OC(F)F)c(OCC2CC2)c1` [roflumilast, 3-(cyclopropylmethoxy)-N-(3,5-dichloropyridin-4-yl)-4-(difluoromethoxy) benzamide], in the assay on PDE IV [1] (8/0.0008), the “selectivity for PDE IV as compared with PDE V (PDE V IC50/PDE IV IC50)” value was “at least 10,000”. In addition, in the assay on PDE IV [1] (>10/0.0008), the “selectivity for PDE IV as compared with PDE I (PDE I IC50/PDE IV IC50)” value is on record as “at least 12,500”. The IC50 in the assay with PDE IV [2] is 0.8 nM; with PDE I it was more than 10000 nM.

These data come from patent US20060083714A1, “Combination of a pde iv inhibitor and a tnf-alpha antagonist” (priority 2003, published 2006).
